Laboratory results taken from patent US20220008382A1, “ALCOHOL ANTIDOTE” (Evanium Healthcare GmbH, priority 2018, published 2022).
≈ marks a conversion by molar mass, not a printed value.

Experiments:
[1] = test system: GABAA receptor α+/β− interface; conditions: cited from earlier work
[2] = test system: GABAA receptor β+/α− interface at the amino acid β-265ASN; conditions: cited from earlier work
[3] = Solubility of taxifolin in organic solvents; format: physicochemical
[4] = in vivo; cited from earlier work
[5] = Solubility of the solid dispersion with Eudragit E in 0.1 N HCl (simulated gastric juices); format: physicochemical; conditions: simulated gastric fluid, thermodynamic from solid, saturated solution, room temperature, HPLC, read-out: Solubility of taxifolin
Experimental: The last most important point for comparing the production methods to one another is solubility in simulated gastric juices. That is, the solubility of the complex directly influences bioavailability, because only dissolved active ingredients can pass the epithelial cells of the GI tract
10 mg taxifolin (Lavitol® 98.9% purity) was placed in a vial with 5 ml 0.1 N HCl to make a saturated solution and shaken for 60 minutes. The solution was then transferred into a vial by means of a syringe with an HPLC filter (0.22 μm) and then measured.
Saturated solutions of the samples in 0.1 molar HCl solution were prepared at room temperature. The solution was then transferred to a vial by means of a syringe with an HPLC filter (0.22 μm), appropriately diluted and the taxifolin concentration of the solution was determined by HLPC.

[6] = Saturation solubility in dist. water (HPLC), β-CD complexes; format: physicochemical; conditions: distilled water, thermodynamic from solid, saturated solution shaken 60 minutes, HPLC DAD-254 nm, read-out: Solubility of taxifolin
Experimental: Saturation Solubility in Dist. Water (HPLC)
The last most important point in terms of comparing the production methods to one another is solubility in distilled water. The solubility of the complex has a direct influence on bioavailability, because only dissolved complexes/active ingredients can pass the epithelial cells of the GI tract. Moreover, the samples were examined for rel. substances in order to identify possible degradation of the active ingredient during the production process.
10 mg taxifolin (Lavitol® 98.9% purity) was placed in a vial with 5 ml dist. water to make a saturated solution and shaken for 60 minutes. The solution was then transferred to a vial using a syringe with an HPLC filter (0.22 μm) and then measured undiluted (HPLC DAD-254 nm).
500 mg of the sample was placed in a vial with 6 ml dist. water to make a saturated solution and shaken for 60 minutes. The solution was then transferred to a vial using a syringe with an HPLC filter (0.22 μm), diluted 10:1 with distilled water to prevent oversaturation, and then measured (HPLC DAD-254 nm). The taxifolin concentration was calculated in mg/ml based on the peak area, taking into account the dilution.

[7] = Dissolution behaviour, USP apparatus II (paddle); format: physicochemical; conditions: 100 rpm; for Mean release: N=2, 500 ml 0.1 N HCl
Experimental: In order to check the dissolution behaviour of the final formulations, dissolution studies of the cyclodextrin and the Eudragit formulation against pure taxifolin were carried out.
Method: In order to determine the dissolution behaviour, the usual procedure according to pharmacopoeia was chosen.
USP apparatus II (paddle); 100 rpm; medium: 500 ml 0.1 N HCl; 2 vessels per sample (N=2); 7 sampling points: 0 min, 5 min, 10 min, 15 min, 20 min, 30 min, 60 min; weighed in: formulation as a powder corresponding to 100 mg taxifolin; detection by HPLC
The following formulations were tested: • taxifolin (Ametis Lavitol®, 98.8% purity) • Eudragit® E CSE 2:1 (solid dispersion formulation) • FD β (cyclodextrin formulation)

[8] = Saturation solubility in dist. water (HPLC), γ-CD complexes; format: physicochemical; conditions: thermodynamic from solid, saturated solution shaken 60 minutes, HPLC DAD-254 nm
Method: 10 mg taxifolin (Lavitol® 98.9% purity) was placed in a vial with 5 ml dist. water to make a saturated solution and shaken for 60 minutes. The solution was then transferred to a vial by means of a syringe with an HPLC filter (0.22 μm) and then measured (HPLC DAD-254 nm).
300 mg of the sample was placed in a vial with 5 ml dist. water to produce a saturated solution and shaken for 60 minutes. The solution was then transferred to a vial using a syringe with an HPLC filter (0.22 μm) and then measured undiluted (HPLC DAD-254 nm).

CCO [ethanol]
Concentration from which the high-affinity binding site is occupied [1]: ≥ 3 mM
Concentration from which the low-affinity binding site is occupied [2]: ≥ 50 mM

O=C1c2c(O)cc(O)cc2O[C@H](c2ccc(O)c(O)c2)[C@H]1O [Taxifolin reference, (+)taxifolin]
Solubility in acetone and ethyl acetate [3]: very soluble
Solubility in diethyl ether [3]: insoluble
NOAEL level [4]: 1500 mg/kg
solubility at 60 min [5]: 693 µg/mL (≈ 2280 µM)
solubility at 60 min [6]: 750 µg/mL (≈ 2460 µM)
Mean release ([7]; 5 min): 29%
Release ([7]; 5 min, vessel 1, 500 ml 0.1 N HCl): 28.2%
Release ([7]; 5 min, vessel 2, 500 ml 0.1 N HCl): 29.2%
Mean release ([7]; 10 min): 46%
Release ([7]; 10 min, vessel 1, 500 ml 0.1 N HCl): 46.4%
Release ([7]; 10 min, vessel 2, 500 ml 0.1 N HCl): 44.8%
Mean release ([7]; 15 min, listed as taxifolin): 60%
Mean release ([7]; 15 min, listed as taxifolin (reference)): 60%
Release ([7]; 15 min, vessel 1, 500 ml 0.1 N HCl): 61.1%
Release ([7]; 15 min, vessel 2, 500 ml 0.1 N HCl): 58.7%
Mean release ([7]; 20 min): 69%
Release ([7]; 20 min, vessel 1, 500 ml 0.1 N HCl): 70.4%
Release ([7]; 20 min, vessel 2, 500 ml 0.1 N HCl): 67.5%
Mean release ([7]; 30 min): 79%
Release ([7]; 30 min, vessel 1, 500 ml 0.1 N HCl): 80.8%
Release ([7]; 30 min, vessel 2, 500 ml 0.1 N HCl): 77.4%
Mean release ([7]; 60 min): 92%
Release ([7]; 60 min, vessel 1, 500 ml 0.1 N HCl): 90.8%
Release ([7]; 60 min, vessel 2, 500 ml 0.1 N HCl): 93.1%
solubility at 60 min [8]: 750 µg/mL (≈ 2460 µM)
